From patent US4542021A, “Antitumor compositions for non-injection administration” (Yamasa Shoyu Kabushiki Kaisha, priority 1978, dated 1985)
Counter-ions that a name gives are not always drawn. Like-named read-outs stand apart in the source and are kept apart here.

What was measured:
L1210 leukemia = test: Therapeutic test on L1210 leukemia (oral, once a day); format: in vivo, BDF1 mice; settings: Mus musculus, read-out: % ILS (increase in life span)
Experimental: The L1210 leukemic cell suspension (1×10^5 cells/0.2 ml) was implanted intraperitoneally in BDF1 mice (males, 18 to 22 g, females, 16 to 20 g) (7 mice per group). From 24 hours after the implantation to the 5th day thereafter, the predetermined doses of the compounds to be tested were orally administered to the mice consecutively once a day. The compounds to be tested were dissolved or suspended in a phosphate-bufferedsalt solution (PBS) containing 0.5% carboxymethylcellulose, and given at a dose rate of 0.1 ml per 10 g of each mouse's body weight. To a control group, only the same solvent as used for the dissolution of the compounds to be tested was administered in the same way. The mean survival times (MST) for each group were calculated, and the corresponding increase in life span (%ILS) was obtained in accordance with the following formula, the results of which are shown in Table 1. [formula]

[1] = Acute toxicity test, oral (Test Example 5); design: species or system ICR-JCL mice; settings: mouse, in vivo, neutralized ester, male mice, 14th day
Experimental: An ara-CMP ester was neutralized and dissolved in saline containing 0.5% of carboxymethylcellulose, and the resulting solution was orally administered to ICR-JCL mice (males, 24 to 26 g) in a dose of 0.2 ml per 10 g of each mouse's body weight.

B16 melanoma = test: Effectiveness against B16 melanoma (oral, 3 times a week); format: in vivo, BDF1 mice
Experimental: The B16 melanoma cells (1×10^6 cells) were implanted to the right side-abdominal hypoderms of BDF1 mice (male, 18 to 22 g). From the 13th day after the implantation to death the compounds to be tested were administered orally 3 times a week. The compounds to be tested were dissolved in a phosphate-buffered salt solution (PBS) containing 0.5% carboxymethyl-cellulose to a suitable concentration, and given to the mice at a dose rate of 0.1 ml per 10 g of each mouse's body weight. The increases in life span (%ILS) were calculated in accordance with the same formula as described in Test Example 1.

L1210 leukemic cells [2] = test: Experimental tumor proliferation model in the lymph nodes, once a day for 6 days; format: in vivo, BDF1 mice; settings: ip
Experimental: (§1) L1210 leukemic cells (1×10^6 cells/0.05 ml) were implanted to the right inner-thigh hypoderms of BDF1 mice (males, 18 to 22 g). From one day after the transplantation, the compounds to be tested were administered intraperitoneally or orally to the mice once a day consecutively for 6 days. The compounds being tested were dissolved in a phosphate-buffered salt solution (PBS) containing 0.5% carboxymethylcellulose to a suitable concentration, and administered to the mice at a dose rate of 0.1 ml per 10 g of each mouse's body weight. The increases in life span (%ILS) were calculated similarly as in Test Example 1.

L1210 leukemic cells [3] = test: Experimental tumor proliferation model in the lymph nodes, single administration on sixth day; format: in vivo, BDF1 mice; settings: ip, once on sixth day
Experimental: as §1
Furthermore, in a similar manner, each of the test compounds was administered only once on the sixth day after implantation.

[4] = L1210, 720 h, oral, 100 mg/kg/day, > means some mice survived the test period (30 days)
[5] = L1210, 720 h, oral, 200 mg/kg/day, > means some mice survived the test period (30 days)
[6] = L1210, 720 h, oral, 400 mg/kg/day, > means some mice survived the test period (30 days)

| SMILES | ILS at 100 mg/kg/day (L1210 leukemia; [4]) [%] | ILS at 200 mg/kg/day (L1210 leukemia; [5]) [%] | ILS at 25 mg/kg/day (L1210 leukemia; L1210, oral) [%] | ILS at 50 mg/kg/day (L1210 leukemia; L1210, oral) [%] | ILS at 400 mg/kg/day (L1210 leukemia; [6]) [%] | other results |
| --- | --- | --- | --- | --- | --- | --- |
| CCCCCCCCCCCCCCCCCCCCOP(=O)(O)OC[C@H]1O[C@@H](n2ccc(N)nc2=O)[C@@H](O)[C@@H]1O [C20-ara-CMP ester, ara-CMP-eicosyl ester] | 126 | > 199 | 60 | 90 |  | ILS at 6.25 mg/kg/day (L1210 leukemia; L1210, oral, 6.25 mg/kg/day): 19%; ILS at 12.5 mg/kg/day (L1210 leukemia; L1210, oral): 39%; LD50 at 336 h [1]: 2720 mg/kg |
| CCCCCCCCCCCCCCCCCCCCCCCOP(=O)(O)OC[C@H]1O[C@@H](n2ccc(N)nc2=O)[C@@H](O)[C@@H]1O [C23-ara-CMP ester, ara-CMP-tricosyl ester] | 81 | 110 | 51 | 65 | 128 | ILS at 12.5 mg/kg/day (L1210 leukemia; L1210, oral): 29% |
| Nc1ccn([C@@H]2O[C@H](CO)[C@@H](O)[C@@H]2O)c(=O)n1 [ara-C (hydrochloride), 1-β-D-arabinofuranosyl cytosine, reference compound] | 22 | 34 |  |  | 67 | Increase in life span (% ILS) (B16 melanoma; 100 mg/kg): 22%; Mean survival time (MST ± SE) (B16 melanoma; 100 mg/kg): 26.8 ± 1.50; Increase in life span (% ILS) (B16 melanoma; 200 mg/kg): -5%; Mean survival time (MST ± SE) (B16 melanoma; 200 mg/kg): 21.0 ± 1.76; Increase in life span (% ILS) (B16 melanoma; 400 mg/kg): 1%; Mean survival time (MST ± SE) (B16 melanoma; 400 mg/kg): 22.2 ± 2.82; Increase in life span (% ILS) (L1210 leukemic cells [2]; 50 mg/kg/day): 101%; Mean survival time (MST ± SE) (L1210 leukemic cells [2]; 50 mg/kg/day): 13.9 ± 0.59; Increase in life span (% ILS) (L1210 leukemic cells [2]; 100 mg/kg/day): 110%; Mean survival time (MST ± SE) (L1210 leukemic cells [2]; 100 mg/kg/day): 14.5 ± 0.62; Increase in life span (% ILS) (L1210 leukemic cells [3]; 250 mg/kg): 36%; Mean survival time (MST ± SE) (L1210 leukemic cells [3]; 250 mg/kg): 9.9 ± 0.13; Increase in life span (% ILS) (L1210 leukemic cells [3]; 500 mg/kg): 49%; Mean survival time (MST ± SE) (L1210 leukemic cells [3]; 500 mg/kg): 10.9 ± 0.23 |
| CCCCCCCCCCOP(=O)(O)OC[C@H]1O[C@@H](n2ccc(N)nc2=O)[C@@H](O)[C@@H]1O [ara-CMP decyl ester, reference compound] | 8 | 36 | 0 | 4 | 39 |  |
| CCCCCCCCCCCCCCCCCCCCCCCCCCOP(=O)(O)OC[C@H]1O[C@@H](n2ccc(N)nc2=O)[C@@H](O)[C@@H]1O [ara-CMP hexacosyl ester, reference compound] | 27 | 52 | 14 | 23 | 86 |  |
| COP(=O)(O)OC[C@H]1O[C@@H](n2ccc(N)nc2=O)[C@@H](O)[C@@H]1O [ara-CMP methyl ester, reference compound] |  |  |  |  |  | ILS at 100 mg/kg/day (L1210 leukemia; L1210, po, 720 h): 13%; ILS at 200 mg/kg/day (L1210 leukemia; L1210, po, 720 h): 48%; ILS at 400 mg/kg/day (L1210 leukemia; L1210, po, 720 h): 65% |
| CCCCCCCCCCCOP(=O)(O)OC[C@H]1O[C@@H](n2ccc(N)nc2=O)[C@@H](O)[C@@H]1O [ara-CMP undecyl ester, reference compound] | 31 | 78 | 12 | 27 |  |  |
| Nc1ccn([C@@H]2O[C@H](COP(=O)(O)O)[C@@H](O)[C@@H]2O)c(=O)n1 [ara-CMP, arabinofuranosylcytosine-5'-phosphate, reference compound] | 21 | 57 |  | 8 | 73 |  |
